Reference: patent US20110166079A1, “METHODS OF TREATING CANCER WITH APOE PEPTIDES” (COGNOSCI, INC., priority 2008, published 2011)

Assays:
Akt kinase = assay: LPS-induced phosphorylation of Akt kinase in BV2 microglial cells (Western blot densitometry); type: cell-based, mouse; conditions: 10 ng/mL LPS, 1 μM COG112, normalized to actin, FIG. 2C
Procedure: To determine if COG peptides could also suppress activation of the upstream Akt kinase, BV2 microglial cells were treated with 10 ng/mL LPS alone or in the presence of 1 μM COG112 (SEQ ID NO: 2) peptide. Cell lysates were run on 10% polyacrylamide gels and subsequently transferred to nitrocellulose membranes. Blots were probed with an anti-phospho-Akt antibody or an antibody to actin. Densitometry analysis of the western blots was conducted and the signals from phosphorylated Akt kinase were normalized to those from actin.

IκB Kinase (IκK) = assay: IκK activity ELISA in YAMC cells exposed to C. rodentium; type: cell-based, mouse; conditions: FIG. 2D
Procedure: Akt kinase can phosphorylate and activate IκB Kinase (IκK), which leads to the de-repression of NFκB by IκB. As described above, COG peptides reduce phosphorylation of IκB and subsequent activation of NFκB induced by a Toll-like receptor 4 agonist (LPS). To determine if COG peptides also affect IκK activation, IκK activity was assessed in cytoplasmic cellular lysates of young adult mouse colon (YAMC) cells exposed to C. rodentium bacteria alone or in the presence of COG112 (SEQ ID NO: 2). IκK activity was measured using a specific ELISA assay (K-LISATM detection kit, Calbiochem/EMD Biosciences). Cytosolic cell extracts were incubated in glutathionine coated wells of a 96-well plate with a glutathione S transferase (GST)-tagged IκB-α fusion polypeptide substrate that includes the Ser32 and Ser36 IκB-α kinase phosphorylation sites. Phosphorylated GST-IκB-α substrate was detected using horseradish peroxidase-conjugated anti-phospho-IκB-α antibody. Optical density proportional to kinase activity was measured at 450 nm in a plate reader. The time course of IκK activation induced by C. rodentium in the presence (closed squares) or absence (open squares) of COG112 is shown in FIG. 2D. Time 0 indicates cells that were not stimulated with C. rodentium.

PP2A = biological target: T1, PP2A (Mus musculus, UniProt P63330); assay: PP2A activity in RAW cells (immunoprecipitation / phosphate release); type: cell-based; conditions: 30 minutes, 2 μM COG112, 10 nM okadaic acid, FIG. 3
T1 construct: cells were lysed and PP2A was immunoprecipitated by adding an antibody targeted to the catalytic C-subunit of PP2A; endogenous in cells; host or cells: mouse macrophagic RAW cells
Procedure: Mouse macrophagic RAW cells were incubated with either 2 μM COG112 (SEQ ID NO: 2), 10 nM okadaic acid (an inhibitor of PP2A), or okadaic acid and COG112. After 30 minutes, cells were lysed and PP2A was immunoprecipitated by adding an antibody targeted to the catalytic C-subunit of PP2A. Half of the immunoprecipitate was separated by SDS-PAGE, blotted on to nitrocellulose, and probed with an anti-PP2AC antibody. The remaining portion was assayed for activity by adding 125 μL assay cocktail containing a phospho-threonine substrate peptide to the immunoprecipitated enzyme. After incubating at 37° C. with shaking, a 25 μL aliquot was removed and added to an ammonium molybdate solution (Upstate) that chelates free phosphate and changes color upon chelate formation. Aliquots were removed at various time intervals and the amount of free phosphate released from the peptide was determined by comparison to a phosphate standard curve. The rate of phosphate release was determined by linear fit to the time course data and was normalized to the relative PP2A concentration. […] PP2A activity was reduced in the presence of okadaic acid alone as expected. […] Thus, the active pool of PP2A in a cell can be regulated by ApoE peptides.

B-CLL cells [1] = assay: Cytotoxicity on B-CLL cells from CLL patients (MTS assay)
Procedure: To determine whether COG peptides could counteract the overactivation of the Akt/NFkB pathway in B-CLL cells and effectively induce apoptosis, cytotoxicity testing was performed on freshly isolated B-CLL cells from CLL patients with COG peptides. Blood from CLL patients was collected and CD5+/CD19+ CLL cells were isolated using the RosetteSep™ Human B Cell Enrichment Cocktail. This method depletes whole blood of T cells, monocytes, and NK cells using a proprietary antibody cocktail containing anti-CD14, anti-CD2 and anti-CD16 antibodies to remove T cells, monocytes, and NK cells, respectively. The antibody cocktail crosslinks unwanted cells in human whole blood to multiple red blood cells forming immunorosettes thereby increasing the density of the rosetted cells, such that they pellet along with the free RBCs when centrifuged over a buoyant density medium such as Ficoll-Paque®. The highly enriched B-cell or B-CLL cells are left at the interface between Ficoll and the plasma.
COG peptides were applied to the isolated B-CLL cells (0.25×10^6 cells/well in a 96 well plate) for 72 hours, after which viable cells were assessed using the MTS assay ([…]).
Additional B-CLL cells and peripheral blood mononuclear cells (PBMC; i.e., normal B cells) were isolated from leukemia patients and normal volunteers, respectively, and were treated with a range of COG112 concentrations.

B-CLL cells [2] = assay: Annexin V / propidium iodide apoptosis assay on B-CLL cells; type: cell-based, human
Procedure: In a first series of experiments, apoptosis assays using Annexin V staining were performed on freshly isolated B-CLL cells to determine if COG112 could reverse the anti-apoptotic state in these cells and induce apoptosis. […] Apoptosis was measured using the Annexin V-FITC apoptosis detection kit (BD Biosciences-Pharmingen). COG-treated and untreated cells were Annexin V-FITC- and propidium iodide-stained for 15 minutes in 1× binding buffer (10 mM HEPES, pH 7.4, 140 mM NaCl, 2.5 mM CaCl2) and analyzed by flow cytometry. One aliquot of cells was treated with 100 μg/mL etoposide as a positive control for apoptosis induction.

BCR/ABL fusion protein = assay: Phospho-BCR/ABL Western blot in K562 cells; type: cell-based; conditions: COG112 0.5 or 1 μM, 24 hours, FIG. 8A
Procedure: As discussed above, constitutive activation of the BCR/ABL fusion protein produced by the Philadelphia chromosome (e.g. product of the t(9;22)(q34;q11) translocation) is the primary causative factor in the persistent signaling that leads to unrestrained cell proliferation and survival in CML. […] Cell lysates were prepared and subject to Western blot analysis to detect activated phospho-BCR/ABL.

Jurkat T-cells = assay: Growth of Jurkat T-cell leukemia cells; type: cell-based, human; conditions: 1 μM COG112, FIG. 9
Procedure: To determine whether ApoE peptides could be therapeutic for T-cell leukemia, the effect of COG112 on the growth rate of Jurkat T-cells, a human acute T-cell leukemia cell line, was assessed. Jurkat T-cells (2×10^4 cells per well in a 6 well plate) were grown in 2 mL of media in the absence or presence of 1 μM COG112 added upon plating the cells. Cell growth was measured using a hemacytometer following daily removal of a small aliquot for counting.

T1 sequence (P63330 whole entry): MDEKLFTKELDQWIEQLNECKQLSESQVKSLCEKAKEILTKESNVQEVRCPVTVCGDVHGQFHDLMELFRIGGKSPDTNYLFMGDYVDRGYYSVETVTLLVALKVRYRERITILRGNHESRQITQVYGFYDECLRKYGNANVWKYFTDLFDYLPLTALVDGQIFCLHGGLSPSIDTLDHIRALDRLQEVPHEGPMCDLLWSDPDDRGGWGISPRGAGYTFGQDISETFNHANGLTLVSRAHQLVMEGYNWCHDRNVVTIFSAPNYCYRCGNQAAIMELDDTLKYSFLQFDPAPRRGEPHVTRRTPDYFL

Substance: Ac-RQIKIWFQNRRMKWKKCLRVRLASHLRKLRKRLL-NH2 (N-terminus and C-terminus assumed) [COG112]
- LPS-induced phosphorylation of the Akt kinase (Akt kinase): significantly decreased
- IκK activity (IκB Kinase (IκK)): substantially reduced
- PP2A activity (rate of phosphate release) (PP2A): increased
- Fold Change (B-CLL cells [1]; EC50 relative to COG056 control): 58.6
- EC50 (B-CLL cells [1]; human, 72 hours): 0.22 ± 0.13 µM
- ED50 for induction of apoptosis (B-CLL cells [2]; B-CLL cells, Annexin V): closely mirrored the ED50 for cytotoxicity
- apoptosis (Annexin-V+/propidium iodide+ cells) (B-CLL cells [2]; increasing concentrations of COG112, flow cytometry, FIG. 5): dose-dependent increase in apoptosis
- level of phosphorylated BCR/ABL (BCR/ABL fusion protein): dose-dependent reduction
- proliferation of Jurkat T-cells (Jurkat T-cells): significantly inhibited
